The text below walks through data of patent US4117117A, “Tridecapetide having gastrin effect” (Max Planck-Gesellschaft zur Forderung der Wissenschaften, priority 1976, dated 1978).

Series [1] is described as follows: stability compared to natural minigastrin. The conditions noted are these: as compared to the natural minigastrin.
In series [2] the test system is secretion activity of the stomach and of the pancreas. In words: gastrin activity (stimulation of the secretion activity of the stomach and of the pancreas).

For “L-leucyl-L-glutamyl-L-glutamyl-L-glutamyl-L-glutamyl-L-glutamyl-L-ananyl-L-tyrosyl-glycyl-L-tryptophyl-L-leucyl-L-asparagyl-L-phenylalanineamide [11-leucine-minigastrin]”, the stability entry in series [1] is reported as “improved stability”. Also, in series [2], the gastrin activity result is recorded as “satisfactory”. In addition, the “stimulation of the secretion activity of the stomach and of the pancreas” value in series [2] (just like naturally-occurring gastrin) is on record as “causes stimulation”.
